According to patent US20210371351A1, “MIXTURES COMPRISING AT LEAST TWO DIFFERENT NITRIFICATION INHIBITORS SELECTED FROM 2-(3,4-DIMETHYL-1H-PYRAZOL-1-YL)SUCCINIC ACID (DMPSA), 3,4-DIMETHYL PYRAZOLIUM GLYCOLATE (DMPG) AND OTHER COMPOUNDS” (BASF SE, priority 2017, published 2021):

Tested on: nitrification
Assay: Example 5: soil incubation in bottles with ammonium sulfate, DMPSA, DCD or mixtures, 5 to 15° C., 0 up to 56 days; recovery NH4 (RE/RC), net recovery NH4 (NE/NC), inhibition of NO3 formation (IE/IC, Böhland; Colby)
Description: 100 g soil is filled into 500 ml plastic bottles (e.g. soil sampled from the field) and is moistened to 50% water holding capacity. The soil is incubated at 20° C. for two weeks to activate the microbial biomass. 1 ml test solution, containing the compositions and mixtures of the invention in the appropriate concentration, or DMSO and 5 to 10 mg nitrogen in the form of ammoniumsulfate-N is added to the soil and everything mixed well. Bottles are capped but loosely to allow air exchange. The bottles are then incubated at 5 to 15° C. for 0 up to 56 days.
For analysis, 300 ml of a 1% K2SO4-solution is added to the bottle containing the soil and shaken for 2 hrs in a horizontal shaker at 150 rpm. Then the whole solution is filtered through a Macherey-Nagel Filter MN 807′/. Ammonium and nitrate content is then analyzed in the filtrate in an autoanalyzer at 550 nm (Merck, AA11).
The Böhland equation is described in Böhland, H., et al. (1973) “Mittel zur Hemmung bzw. Regelung der Nitrifikation von Ammoniumstickstoff in Kulturböden”. DDR-Wirtschaftspatent (Economic patent of the German Democratic Republic) C 05c 169 727. Cited by: Peschke, H. (1985) “Zur Bewertung der inhibierenden Wirkung von Nitrifiziden im Boden”, Zbl. Mikrobiol. 140, pp. 583-588.

Compound: N#CN=C(N)N [DCD, dicyandiamide]
- IE inhibition of NO3 formation (IT5° C., DAT10, % a.i.: DMPSA 0.5, DCD 1, DMPSA + DCD 0.5 + 1 (1:2)): 10
- IE inhibition of NO3 formation (IT5° C., DAT10, % a.i.: DMPSA 0.5, DCD 3, DMPSA + DCD 0.5 + 3 (1:6)): 43
- IE inhibition of NO3 formation (IT5° C., DAT20, % a.i.: DMPSA 0.5, DCD 1, DMPSA + DCD 0.5 + 1 (1:2)): −5
- IE inhibition of NO3 formation (IT5° C., DAT20, % a.i.: DMPSA 0.5, DCD 3, DMPSA + DCD 0.5 + 3 (1:6)): 32
- IE (inhibition of NO3 formation, Böhland) (IT5° C., DAT28, % a.i. DMPSA 0.25, DCD 1): 65
- IE (inhibition of NO3 formation, Böhland) (IT5° C., DAT28, % a.i. DMPSA 0.25, DCD 3): 73
- IE (inhibition of NO3 formation, Böhland) (IT5° C., DAT28, % a.i. DMPSA 0.30, DCD 0.05): 1
- IE (inhibition of NO3 formation, Böhland) (IT5° C., DAT28, % a.i. DMPSA 0.50, DCD 0.08): 12
- IE inhibition of NO3 formation (IT5° C., DAT28, % a.i.: DMPSA 0.50, DCD 0.0125, DMPSA + DCD 0.50 + 0.0125 (40:1)): −7
- IE inhibition of NO3 formation (IT5° C., DAT28, % a.i.: DMPSA 0.50, DCD 0.0143, DMPSA + DCD 0.50 + 0.0143 (35:1)): −2
- IE inhibition of NO3 formation (IT5° C., DAT28, % a.i.: DMPSA 0.50, DCD 0.0167, DMPSA + DCD 0.50 + 0.0167 (30:1)): 0
- IE inhibition of NO3 formation (IT5° C., DAT30, % a.i.: DMPSA 0.5, DCD 1, DMPSA + DCD 0.5 + 1 (1:2)): 70
- IE inhibition of NO3 formation (IT5° C., DAT30, % a.i.: DMPSA 0.5, DCD 3, DMPSA + DCD 0.5 + 3 (1:6)): 113
- IE (inhibition of NO3 formation, Böhland) (IT5° C., DAT42, % a.i. DMPSA 0.25, DCD 1): 63
- IE (inhibition of NO3 formation, Böhland) (IT5° C., DAT42, % a.i. DMPSA 0.25, DCD 3): 82
- IE (inhibition of NO3 formation, Böhland) (IT5° C., DAT42, % a.i. DMPSA 0.30, DCD 0.05): 7
- IE (inhibition of NO3 formation, Böhland) (IT5° C., DAT42, % a.i. DMPSA 0.50, DCD 0.08): 18
- IE (inhibition of NO3 formation, Böhland) (IT5° C., DAT56, % a.i. DMPSA 0.25, DCD 1): 57
- IE (inhibition of NO3 formation, Böhland) (IT5° C., DAT56, % a.i. DMPSA 0.25, DCD 3): 74
- IE (inhibition of NO3 formation, Böhland) (IT5° C., DAT56, % a.i. DMPSA 0.30, DCD 0.05): 13
- IE (inhibition of NO3 formation, Böhland) (IT5° C., DAT56, % a.i. DMPSA 0.50, DCD 0.08): −1
- IE inhibition of NO3 formation (IT10° C., DAT10, % a.i.: DMPSA 0.5, DCD 1, DMPSA + DCD 0.5 + 1 (1:2)): 18
- IE inhibition of NO3 formation (IT10° C., DAT10, % a.i.: DMPSA 0.5, DCD 3, DMPSA + DCD 0.5 + 3 (1:6)): 59
- IE inhibition of NO3 formation (IT10° C., DAT20, % a.i.: DMPSA 0.5, DCD 1, DMPSA + DCD 0.5 + 1 (1:2)): 15
- IE inhibition of NO3 formation (IT10° C., DAT20, % a.i.: DMPSA 0.5, DCD 3, DMPSA + DCD 0.5 + 3 (1:6)): 24
- IE (inhibition of NO3 formation, Böhland) (IT10° C., DAT28, % a.i. DMPSA 0.25, DCD 1): 47
- IE (inhibition of NO3 formation, Böhland) (IT10° C., DAT28, % a.i. DMPSA 0.25, DCD 3): 64
- IE (inhibition of NO3 formation, Böhland) (IT10° C., DAT28, % a.i. DMPSA 0.30, DCD 0.05): 4
- IE (inhibition of NO3 formation, Böhland) (IT10° C., DAT28, % a.i. DMPSA 0.50, DCD 0.08): 2
- IE inhibition of NO3 formation (IT10° C., DAT28, % a.i.: DMPSA 0.50, DCD 0.0125, DMPSA + DCD 0.50 + 0.0125 (40:1)): 1
- IE inhibition of NO3 formation (IT10° C., DAT28, % a.i.: DMPSA 0.50, DCD 0.0143, DMPSA + DCD 0.50 + 0.0143 (35:1)): −3
- IE inhibition of NO3 formation (IT10° C., DAT28, % a.i.: DMPSA 0.50, DCD 0.0167, DMPSA + DCD 0.50 + 0.0167 (30:1)): −1
- IE inhibition of NO3 formation (IT10° C., DAT30, % a.i.: DMPSA 0.5, DCD 1, DMPSA + DCD 0.5 + 1 (1:2)): 47
- IE inhibition of NO3 formation (IT10° C., DAT30, % a.i.: DMPSA 0.5, DCD 3, DMPSA + DCD 0.5 + 3 (1:6)): 55
- IE (inhibition of NO3 formation, Böhland) (IT10° C., DAT42, % a.i. DMPSA 0.25, DCD 1): 51
- IE (inhibition of NO3 formation, Böhland) (IT10° C., DAT42, % a.i. DMPSA 0.25, DCD 3): 64
- IE (inhibition of NO3 formation, Böhland) (IT10° C., DAT42, % a.i. DMPSA 0.30, DCD 0.05): −1
- IE (inhibition of NO3 formation, Böhland) (IT10° C., DAT42, % a.i. DMPSA 0.50, DCD 0.08): −1
- IE (inhibition of NO3 formation, Böhland) (IT10° C., DAT56, % a.i. DMPSA 0.25, DCD 1): 19
- IE (inhibition of NO3 formation, Böhland) (IT10° C., DAT56, % a.i. DMPSA 0.25, DCD 3): 29
- IE (inhibition of NO3 formation, Böhland) (IT10° C., DAT56, % a.i. DMPSA 0.30, DCD 0.05): −3
- IE (inhibition of NO3 formation, Böhland) (IT10° C., DAT56, % a.i. DMPSA 0.50, DCD 0.08): 0
- IE inhibition of NO3 formation (IT15° C., DAT10, % a.i.: DMPSA 0.5, DCD 1, DMPSA + DCD 0.5 + 1 (1:2)): 34
- IE inhibition of NO3 formation (IT15° C., DAT10, % a.i.: DMPSA 0.5, DCD 3, DMPSA + DCD 0.5 + 3 (1:6)): 55
- IE inhibition of NO3 formation (IT15° C., DAT20, % a.i.: DMPSA 0.5, DCD 1, DMPSA + DCD 0.5 + 1 (1:2)): 47
- IE inhibition of NO3 formation (IT15° C., DAT20, % a.i.: DMPSA 0.5, DCD 3, DMPSA + DCD 0.5 + 3 (1:6)): 64
- IE (inhibition of NO3 formation, Böhland) (IT15° C., DAT28, % a.i. DMPSA 0.25, DCD 1): 27
- IE (inhibition of NO3 formation, Böhland) (IT15° C., DAT28, % a.i. DMPSA 0.25, DCD 3): 46
- IE inhibition of NO3 formation (IT15° C., DAT28, % a.i.: DMPSA 0.30, DCD 0.05, DMPSA + DCD 0.30 + 0.05 (6:1)): 5
- IE inhibition of NO3 formation (IT15° C., DAT28, % a.i.: DMPSA 0.50, DCD 0.0125, DMPSA + DCD 0.50 + 0.0125 (40:1)): 2
- IE inhibition of NO3 formation (IT15° C., DAT28, % a.i.: DMPSA 0.50, DCD 0.0143, DMPSA + DCD 0.50 + 0.0143 (35:1)): 1
- IE inhibition of NO3 formation (IT15° C., DAT28, % a.i.: DMPSA 0.50, DCD 0.0167, DMPSA + DCD 0.50 + 0.0167 (30:1)): 1
- IE inhibition of NO3 formation (IT15° C., DAT28, % a.i.: DMPSA 0.50, DCD 0.08, DMPSA + DCD 0.50 + 0.08 (6.25:1)): 2
- IE inhibition of NO3 formation (IT15° C., DAT30, % a.i.: DMPSA 0.5, DCD 1, DMPSA + DCD 0.5 + 1 (1:2)): 42
- IE inhibition of NO3 formation (IT15° C., DAT30, % a.i.: DMPSA 0.5, DCD 3, DMPSA + DCD 0.5 + 3 (1:6)): 59
- IE (inhibition of NO3 formation, Böhland) (IT15° C., DAT42, % a.i. DMPSA 0.25, DCD 1): 12
- IE (inhibition of NO3 formation, Böhland) (IT15° C., DAT42, % a.i. DMPSA 0.25, DCD 3): 21
- IE inhibition of NO3 formation (IT15° C., DAT42, % a.i.: DMPSA 0.30, DCD 0.05, DMPSA + DCD 0.30 + 0.05 (6:1)): 2
- IE inhibition of NO3 formation (IT15° C., DAT42, % a.i.: DMPSA 0.50, DCD 0.08, DMPSA + DCD 0.50 + 0.08 (6.25:1)): 3
- IE (inhibition of NO3 formation, Böhland) (IT15° C., DAT56, % a.i. DMPSA 0.25, DCD 1): 1
- IE (inhibition of NO3 formation, Böhland) (IT15° C., DAT56, % a.i. DMPSA 0.25, DCD 3): 3
- IE inhibition of NO3 formation (IT15° C., DAT56, % a.i.: DMPSA 0.30, DCD 0.05, DMPSA + DCD 0.30 + 0.05 (6:1)): 16
- IE inhibition of NO3 formation (IT15° C., DAT56, % a.i.: DMPSA 0.50, DCD 0.08, DMPSA + DCD 0.50 + 0.08 (6.25:1)): 13
